Laboratory results: patent publication US10576085B2, “Substituted aminopurine compounds, compositions thereof, and methods of treatment therewith” (Signal Pharmaceuticals, LLC, priority 2016, dated 2020)

How the values were obtained:
PD-L1 = PD-L1 expression, Western blot, HOP62; format: cell-based
Protocol: The effect of Compound 1 was evaluated on PD-L1 expression levels. Cells were cultured in presence or absence of Compound 1 for indicated time before expression levels of PD-L1, DUSP4 and α-tubulin or α-actin were measured by Western blot. To detect surface levels of PD-L1, cells were treated with DMSO or Compound 1 at indicated concentrations for 48 h and cell surface expression of PD-L1 was detected using flow cytometry analysis (FACS) with an APC-labeled antibody to PD-L1 (clone 29E.1A3; BioLegend, San Diego, Calif.). Geometric mean of PD-L1 positive cells was determined by FlowJo 10 (Treestar, Ashland, Oreg.).

Colo 205 tumor = experiment: Colo 205 subcutaneous colorectal xenograft model; format: in vivo, SCID mice
Protocol: For xenograft model studies human cancer cell lines were injected into SCID (severe combined immunodeficiency) mice. Cancer cell lines were propagated in culture in vitro. Tumor bearing animals were generated by injecting precisely determined numbers of cells into mice. Following inoculation of animals, the tumors were allowed to grow to a certain size prior to randomization. The mice bearing xenograft tumors ranging between pre-determined sizes were pooled together and randomized into various treatment groups. A typical efficacy study design involved administering one or more compounds at various dose levels to tumor-bearing mice. Additionally, reference chemotherapeutic agents (positive control) and negative controls were similarly administered and maintained. Tumor measurements and body weights were taken over the course of the study.
In the first experiment Compound 1 was administered orally, QD for 15 days at 0.2, 1, 5, 10, and 15 mg/kg.

PDX146 tumor = experiment: PDX1994060146 (PDX146) subcutaneous colorectal patient-derived xenograft model; format: in vivo, NSG mice; conditions: for Tumor growth delay (TGD): TTP study
Protocol: A time to progression (TTP) study was performed to determine the effect of longer treatment duration on tumor growth.
In the first experiment Compound 1 was administered orally, QD at 1, 5, and 15 mg/kg or 5 and 15 mg/kg BID for 22 days.
In the TTP study, Compound 1 was administered orally, 1, 5, and 15 mg/kg BID for 49-77 days. Compound 1 treatment groups were dosed throughout the duration of the study until the group mean reached the predetermined endpoint of approximately 1200 mm^3 or study termination. Tumor growth delay (TGD) was calculated as the time between the termination of the vehicle control group (on day 43) and the Compound 1 treatment groups. The TGD was 8, 12 and >37 days for the 1, 5 and 15 mg/kg treatment groups, respectively. (FIG. 11)

Hep3B2.1-7 tumor = experiment: Orthotopic Hep3B2.1-7 hepatocellular carcinoma xenograft; format: in vivo, SCID mice
Protocol: Female SCID mice were orthotopically inoculated with 2×10^6 Hep3B2.1-7 tumor cells per animal. Seven days post-inoculation the animals were randomized into treatment groups based on body weight and the treatment commenced (Study day 0). Take rate assessment of a satellite group confirmed the presence of tumor in the liver in 100% of the animals. Treatment with Compound 1 was started and Compound 1 was dosed orally, QD for 21 days. […] On the day of study termination, the tumors were removed and weighed. Individual tumor weights and the mean tumor weight±SEM of each group was plotted (FIG. 16). Percent inhibition was calculated relative to the vehicle control. P values were derived from a one-way ANOVA with a Dunnet's post-hoc analysis. ***=p<0.001.

For `C[C@]1(C(N)=O)CC[C@@H](n2c(Nc3c(Cl)cc(Cl)cc3Cl)nc3cnc(N[C@@H]4CCOC[C@H]4F)nc32)CC1` [Compound 1, cis-4-[2-{[(3S,4R)-3-fluorooxan-4-yl]amino}-8-(2,4,6-trichloroanilino)-9H-purin-9-yl]-1-methyl cyclohexane-1-carboxamide], the PD-L1 expression (PD-L1) was “directly inhibits PD-L1 expression”, the Antitumor activity (Colo 205 tumor; orally, QD for 15 days at 0.2, 1, 5, 10, and 15 mg/kg (FIG. 8)) was “Dose-dependent antitumor activity” and the Antitumor activity (Colo 205 tumor; scheduling study, BID dosing (FIG. 9)) was “Dose-dependent antitumor activity”. For the same compound, the “Tumor growth delay (TGD)” value (PDX146 tumor; 1 mg/kg BID orally) was 8 days, the “Tumor growth delay (TGD)” value (PDX146 tumor; 5 mg/kg BID orally) was 12 days and the “Tumor growth delay (TGD)” value (PDX146 tumor; 15 mg/kg BID orally) was over 37 days. The “Antitumor activity, 15 mg/kg BID compared to 15 mg/kg QD” value (PDX146 tumor; 22 days) was “appeared to increase the antitumor activity”, the Antitumor activity (PDX146 tumor; orally, QD at 1, 5, and 15 mg/kg or 5 and 15 mg/kg BID for 22 days) was “Dose-dependent antitumor activity” and the Body weight (Hep3B2.1-7 tumor; 15 mg/kg orally QD 21 days) was “minimal body weight loss”. For the same compound, the Body weight (Hep3B2.1-7 tumor; 30 mg/kg orally QD 21 days) was “significant mean body weight gain” and the “Tumor weight compared to vehicle controls” value (Hep3B2.1-7 tumor; orally, QD for 21 days) was “statistically significant reduction in tumor weight”.
